Reference: article PMC4143179 (Journal of Natural Products, 2014)

Columns and labels:
[1] = system: MDCK-MDR1 cells; details: transport with versus without verapamil
[2] = system: MCF7 breast cancer cell line; test: Antiproliferation assay; type: cell-based
[3] = intravenous or inhaled administration; cited from earlier work
[4] = system: P-glycoprotein (P-gp); details: cited from earlier work

SMILES	efflux by P-gp (in words) [1]	antiproliferative effects (in words) [2]	time to cross the blood–brain barrier [3] [min]	P-glycoprotein substrate (in words) [4]
COC(=O)[C@@H]1C[C@H](OC(C)=O)C(=O)[C@H]2[C@@]1(C)CC[C@H]1C(=O)O[C@H](CC3=CC(=O)C(OC)=C(OC)C3=O)C[C@]21C [Compound 14, (2S,4aR,6aR,7R,9S,10aS,10bR)-Methyl 9-Acetoxy-2-[(4,5-dimethoxy-3,6-dioxocyclohexa-1,4-dien-1-yl)methyl]-6a,10b-dimethyl-4,10-dioxododecahydro-1H-benzo[f]isochromene-7-carboxylate]	actively effluxed by P-gp			
COC(=O)[C@@H]1C[C@H](OC(C)=O)C(=O)[C@H]2[C@@]1(C)CC[C@H]1C(=O)O[C@H](CC3=CC(=O)C(OC)=CC3=O)C[C@]21C [Compound 15, (2S,4aR,6aR,7R,9S,10aS,10bR)-Methyl 9-Acetoxy-2-[(4-methoxy-3,6-dioxocyclohexa-1,4-dien-1-yl)methyl]-6a,10b-dimethyl-4,10-dioxododecahydro-1H-benzo[f]isochromene-7-carboxylate]	actively effluxed by P-gp			
COC(=O)[C@@H]1C[C@H](OC(C)=O)C(=O)[C@H]2[C@@]1(C)CC[C@H]1C(=O)O[C@H](c3ccoc3)C[C@]21C [Salvinorin A, salvinorin A]	actively effluxed by P-gp	did not show any detectable antiproliferative effects	≤ 1	substrate for P-glycoprotein
Cn1c(=O)c2c(ncn2C)n(C)c1=O [caffeine]	limited efflux by P-gp			
COc1cc2nc(N3CCN(C(=O)c4ccco4)CC3)nc(N)c2cc1OC [prazosin]	actively effluxed by P-gp			
